Measured values taken from PMC6874179, “Development of Macrocycle Kinase Inhibitors for ALK2 Using Fibrodysplasia Ossificans Progressiva‐Derived Endothelial Cells” (JBMR Plus, 2019).

Tests used:
Assay in all cases: Proqinase Kinase profiling
Assay type in all cases: biochemical
Details in all cases: read-out: % inhibition at 100nM
CLK4 = molecular target: T1, CLK4 (Homo sapiens, UniProt Q9HAZ1)
T1 construct: purchased DiscoverX

ABL1_H396P = molecular target: T2, ABL1_H396P (Homo sapiens, UniProt P00519, H396P)
T2 construct: purchased DiscoverX

ACVR2A = molecular target: T3, ACVR2A (Homo sapiens, UniProt P27037)
T3 construct: T7 phage fusion (or DNA tag for qPCR if made in HEK-293); purchased DiscoverX; host or cells: E. coli (T7 phage) or HEK-293

CDK1_cyclinA2 = molecular target: T4, CDK1_cyclinA2 (Homo sapiens, UniProt P06493)
T4 construct: purchased DiscoverX

MAP3K3 = molecular target: T5, MAP3K3 (Homo sapiens, UniProt Q99759)
T5 construct: purchased DiscoverX

EPHA3 = molecular target: T6, EPHA3 (Homo sapiens, UniProt P29320)
T6 construct: purchased DiscoverX

JAK1 = molecular target: T7, JAK1 (Homo sapiens, UniProt P23458)
T7 construct: purchased DiscoverX

KIT_D816V = molecular target: T8, KIT_D816V (Homo sapiens, UniProt P10721, D816V)
T8 construct: purchased DiscoverX

CDK5_p25 = molecular target: T9, CDK5_p25 (Homo sapiens, UniProt Q00535)
T9 construct: purchased DiscoverX

IRAK1 = molecular target: T10, IRAK1 (Homo sapiens, UniProt P51617)
T10 construct: purchased DiscoverX

MAPK8 = molecular target: T11, MAPK8 (Homo sapiens, UniProt P45983)
T11 construct: purchased DiscoverX

FYN = molecular target: T12, FYN (Homo sapiens, UniProt P06241)
T12 construct: purchased DiscoverX

TGFbR1 = molecular target: T13, TGFbR1 (Homo sapiens, UniProt P36897)
T13 construct: purchased DiscoverX

RPS6KA2 = molecular target: T14, RPS6KA2 (Homo sapiens, UniProt Q15349)
T14 construct: purchased DiscoverX

HIPK1 = molecular target: T15, HIPK1 (Homo sapiens, UniProt Q86Z02)
T15 construct: purchased DiscoverX

PDGFRA_V561D = molecular target: T16, PDGFRA_V561D (Homo sapiens, UniProt P16234, V561D)
T16 construct: purchased DiscoverX

MYLK2 = molecular target: T17, MYLK2 (Homo sapiens, UniProt Q9H1R3)
T17 construct: purchased DiscoverX

MYLK3 = molecular target: T18, MYLK3 (Homo sapiens, UniProt Q32MK0)
T18 construct: purchased DiscoverX

CDK4_cyclinD1 = molecular target: T19, CDK4_cyclinD1 (Homo sapiens, UniProt P11802)
T19 construct: purchased DiscoverX

SGK3 = molecular target: T20, SGK3 (Homo sapiens, UniProt Q96BR1)
T20 construct: purchased DiscoverX

EPHB1 = molecular target: T21, EPHB1 (Homo sapiens, UniProt P54762)
T21 construct: purchased DiscoverX

NUAK1 = molecular target: T22, NUAK1 (Homo sapiens, UniProt O60285)
T22 construct: purchased DiscoverX

TEK_Y1108F = molecular target: T23, TEK_Y1108F (Homo sapiens, UniProt Q02763, Y1108F)
T23 construct: purchased DiscoverX

AURKB = molecular target: T24, AURKB (Homo sapiens, UniProt Q96GD4)
T24 construct: purchased DiscoverX

PRKCH = molecular target: T25, PRKCH (Homo sapiens, UniProt P24723)
T25 construct: purchased DiscoverX

EPHA4 = molecular target: T26, EPHA4 (Homo sapiens, UniProt P54764)
T26 construct: purchased DiscoverX

PRKCI = molecular target: T27, PRKCI (Homo sapiens, UniProt P41743)
T27 construct: purchased DiscoverX

MAP3K5 = molecular target: T28, MAP3K5 (Homo sapiens, UniProt Q99683)
T28 construct: purchased DiscoverX

CDK2_cyclinE = molecular target: T29, CDK2_cyclinE (Homo sapiens, UniProt P24941)
T29 construct: purchased DiscoverX

NEK11 = molecular target: T30, NEK11 (Homo sapiens, UniProt Q8NG66)
T30 construct: purchased DiscoverX

ALK_L1196M = molecular target: T31, ALK_L1196M (Homo sapiens, UniProt Q9UM73, L1196M)
T31 construct: purchased DiscoverX

MAP2K1 = molecular target: T32, MAP2K1 (Homo sapiens, UniProt Q02750)
T32 construct: purchased DiscoverX

ACVR1B = molecular target: T33, ACVR1B (Homo sapiens, UniProt P36896)
T33 construct: purchased DiscoverX

EGFR = molecular target: T34, EGFR (Homo sapiens, UniProt P00533)
T34 construct: purchased DiscoverX

ABL1_E255K = molecular target: T35, ABL1_E255K (Homo sapiens, UniProt P00519, E255K)
T35 construct: purchased DiscoverX

PRKG2 = molecular target: T36, PRKG2 (Homo sapiens, UniProt Q13237)
T36 construct: purchased DiscoverX

CSK = molecular target: T37, CSK (Homo sapiens, UniProt P41240)
T37 construct: purchased DiscoverX

CSNK2A1 = molecular target: T38, CSNK2A1 (Homo sapiens, UniProt P68400)
T38 construct: purchased DiscoverX

HIPK2 = molecular target: T39, HIPK2 (Homo sapiens, UniProt Q9H2X6)
T39 construct: purchased DiscoverX

KIT_D816H = molecular target: T40, KIT_D816H (Homo sapiens, UniProt P10721, D816H)
T40 construct: purchased DiscoverX

ABL1_Q252H = molecular target: T41, ABL1_Q252H (Homo sapiens, UniProt P00519, Q252H)
T41 construct: purchased DiscoverX

DMPK = molecular target: T42, DMPK (Homo sapiens, UniProt Q09013)
T42 construct: purchased DiscoverX

T23 sequence (Q02763 23-1124 Y1108F): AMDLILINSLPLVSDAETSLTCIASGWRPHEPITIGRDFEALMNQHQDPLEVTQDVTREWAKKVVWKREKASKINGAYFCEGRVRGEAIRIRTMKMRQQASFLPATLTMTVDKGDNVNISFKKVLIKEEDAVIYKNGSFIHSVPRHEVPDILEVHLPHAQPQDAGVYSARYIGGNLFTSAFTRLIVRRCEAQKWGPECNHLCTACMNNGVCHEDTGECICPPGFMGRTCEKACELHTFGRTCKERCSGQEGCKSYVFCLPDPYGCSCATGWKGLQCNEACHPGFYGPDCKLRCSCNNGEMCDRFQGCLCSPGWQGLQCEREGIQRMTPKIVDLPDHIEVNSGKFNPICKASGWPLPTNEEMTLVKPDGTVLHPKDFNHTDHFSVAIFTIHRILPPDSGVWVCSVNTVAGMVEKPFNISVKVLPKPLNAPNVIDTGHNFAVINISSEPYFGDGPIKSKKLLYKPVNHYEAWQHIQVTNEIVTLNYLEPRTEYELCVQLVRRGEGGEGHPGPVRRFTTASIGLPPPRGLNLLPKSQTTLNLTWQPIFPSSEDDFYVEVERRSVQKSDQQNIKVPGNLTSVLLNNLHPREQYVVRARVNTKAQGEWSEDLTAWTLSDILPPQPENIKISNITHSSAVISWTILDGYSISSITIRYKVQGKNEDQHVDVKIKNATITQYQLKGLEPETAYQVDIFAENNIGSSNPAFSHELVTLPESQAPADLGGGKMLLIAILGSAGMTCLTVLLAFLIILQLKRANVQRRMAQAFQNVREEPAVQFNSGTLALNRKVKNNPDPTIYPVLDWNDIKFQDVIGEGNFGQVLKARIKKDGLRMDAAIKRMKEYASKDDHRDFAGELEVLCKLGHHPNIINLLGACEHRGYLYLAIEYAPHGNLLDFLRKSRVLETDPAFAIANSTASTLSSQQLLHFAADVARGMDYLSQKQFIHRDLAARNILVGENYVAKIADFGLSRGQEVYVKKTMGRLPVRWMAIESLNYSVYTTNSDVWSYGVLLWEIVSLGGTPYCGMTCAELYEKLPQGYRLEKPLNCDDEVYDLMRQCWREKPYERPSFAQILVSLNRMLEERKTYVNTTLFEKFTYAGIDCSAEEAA
T5 sequence (Q99759 whole entry): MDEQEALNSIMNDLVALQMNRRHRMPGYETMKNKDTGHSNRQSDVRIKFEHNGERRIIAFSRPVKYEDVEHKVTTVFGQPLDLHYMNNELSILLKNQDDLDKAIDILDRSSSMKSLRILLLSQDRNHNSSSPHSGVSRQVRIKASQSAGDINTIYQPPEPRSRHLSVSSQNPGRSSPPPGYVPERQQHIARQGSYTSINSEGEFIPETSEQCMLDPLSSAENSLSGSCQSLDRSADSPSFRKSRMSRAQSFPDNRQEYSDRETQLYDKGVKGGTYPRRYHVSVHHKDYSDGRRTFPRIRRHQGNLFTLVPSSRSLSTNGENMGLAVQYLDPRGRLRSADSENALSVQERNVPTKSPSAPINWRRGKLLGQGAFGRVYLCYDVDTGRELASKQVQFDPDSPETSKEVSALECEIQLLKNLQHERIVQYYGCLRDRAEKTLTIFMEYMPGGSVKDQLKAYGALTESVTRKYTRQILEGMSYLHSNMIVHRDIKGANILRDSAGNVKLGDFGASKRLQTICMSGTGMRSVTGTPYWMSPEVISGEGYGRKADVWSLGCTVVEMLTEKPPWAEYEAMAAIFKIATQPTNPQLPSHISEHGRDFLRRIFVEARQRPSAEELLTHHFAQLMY
T24 sequence (Q96GD4 whole entry): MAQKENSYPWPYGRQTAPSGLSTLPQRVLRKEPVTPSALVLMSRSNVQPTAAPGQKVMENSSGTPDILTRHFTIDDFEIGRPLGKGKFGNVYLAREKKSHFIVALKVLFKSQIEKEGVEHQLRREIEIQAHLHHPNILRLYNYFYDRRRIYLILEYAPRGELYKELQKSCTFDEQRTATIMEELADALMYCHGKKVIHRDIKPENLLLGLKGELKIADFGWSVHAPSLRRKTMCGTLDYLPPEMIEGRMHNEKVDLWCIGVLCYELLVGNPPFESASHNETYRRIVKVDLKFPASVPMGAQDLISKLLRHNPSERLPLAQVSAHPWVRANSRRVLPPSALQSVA
T19 sequence (P11802 whole entry): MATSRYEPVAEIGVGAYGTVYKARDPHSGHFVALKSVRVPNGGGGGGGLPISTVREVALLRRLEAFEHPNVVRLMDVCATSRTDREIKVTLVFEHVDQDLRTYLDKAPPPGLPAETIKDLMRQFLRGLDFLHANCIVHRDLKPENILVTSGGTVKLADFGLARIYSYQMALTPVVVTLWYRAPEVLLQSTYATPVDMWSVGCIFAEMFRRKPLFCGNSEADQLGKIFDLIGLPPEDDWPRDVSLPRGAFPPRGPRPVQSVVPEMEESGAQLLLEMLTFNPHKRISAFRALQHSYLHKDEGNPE
T19 sequence (P24385 whole entry partner): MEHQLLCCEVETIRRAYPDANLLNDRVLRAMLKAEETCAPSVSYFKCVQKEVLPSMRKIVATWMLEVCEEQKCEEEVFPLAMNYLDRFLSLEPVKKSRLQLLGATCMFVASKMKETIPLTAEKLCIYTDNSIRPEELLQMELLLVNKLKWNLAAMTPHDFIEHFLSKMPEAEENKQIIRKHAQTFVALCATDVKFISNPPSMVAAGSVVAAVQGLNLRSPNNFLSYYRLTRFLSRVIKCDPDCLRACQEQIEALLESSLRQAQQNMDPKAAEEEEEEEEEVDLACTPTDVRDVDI
T33 sequence (P36896 24-505): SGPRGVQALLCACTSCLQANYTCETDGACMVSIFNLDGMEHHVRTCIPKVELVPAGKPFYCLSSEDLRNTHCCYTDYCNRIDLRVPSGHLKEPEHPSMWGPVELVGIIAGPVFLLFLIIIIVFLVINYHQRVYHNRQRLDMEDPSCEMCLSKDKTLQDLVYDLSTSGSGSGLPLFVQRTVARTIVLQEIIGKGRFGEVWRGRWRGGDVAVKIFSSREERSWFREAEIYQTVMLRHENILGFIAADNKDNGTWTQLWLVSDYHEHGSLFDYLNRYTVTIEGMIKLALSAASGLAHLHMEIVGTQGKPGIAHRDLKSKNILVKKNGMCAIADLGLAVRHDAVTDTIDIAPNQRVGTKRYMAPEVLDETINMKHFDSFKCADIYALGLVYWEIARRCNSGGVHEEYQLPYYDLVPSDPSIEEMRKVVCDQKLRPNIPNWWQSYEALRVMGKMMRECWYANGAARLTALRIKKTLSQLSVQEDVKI
T4 sequence (P06493 whole entry): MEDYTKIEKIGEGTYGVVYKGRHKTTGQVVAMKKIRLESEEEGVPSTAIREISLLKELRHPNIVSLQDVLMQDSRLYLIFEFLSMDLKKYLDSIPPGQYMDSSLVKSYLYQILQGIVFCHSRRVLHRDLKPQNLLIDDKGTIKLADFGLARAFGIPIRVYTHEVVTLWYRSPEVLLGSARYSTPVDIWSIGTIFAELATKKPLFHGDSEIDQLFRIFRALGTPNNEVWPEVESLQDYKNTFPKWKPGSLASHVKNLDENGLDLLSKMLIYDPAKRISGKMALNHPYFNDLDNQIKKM
T4 sequence (P20248 whole entry partner): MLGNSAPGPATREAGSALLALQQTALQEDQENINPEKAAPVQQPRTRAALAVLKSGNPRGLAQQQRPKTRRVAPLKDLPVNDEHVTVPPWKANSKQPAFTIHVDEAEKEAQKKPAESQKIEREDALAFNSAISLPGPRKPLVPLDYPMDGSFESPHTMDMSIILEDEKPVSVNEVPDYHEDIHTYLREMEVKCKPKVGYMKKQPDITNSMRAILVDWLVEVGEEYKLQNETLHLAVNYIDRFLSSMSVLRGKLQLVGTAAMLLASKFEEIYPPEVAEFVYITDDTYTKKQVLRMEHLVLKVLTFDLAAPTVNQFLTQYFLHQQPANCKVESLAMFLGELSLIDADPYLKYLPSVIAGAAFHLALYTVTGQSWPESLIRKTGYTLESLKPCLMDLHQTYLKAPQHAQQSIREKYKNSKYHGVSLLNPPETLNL
T38 sequence (P68400 whole entry): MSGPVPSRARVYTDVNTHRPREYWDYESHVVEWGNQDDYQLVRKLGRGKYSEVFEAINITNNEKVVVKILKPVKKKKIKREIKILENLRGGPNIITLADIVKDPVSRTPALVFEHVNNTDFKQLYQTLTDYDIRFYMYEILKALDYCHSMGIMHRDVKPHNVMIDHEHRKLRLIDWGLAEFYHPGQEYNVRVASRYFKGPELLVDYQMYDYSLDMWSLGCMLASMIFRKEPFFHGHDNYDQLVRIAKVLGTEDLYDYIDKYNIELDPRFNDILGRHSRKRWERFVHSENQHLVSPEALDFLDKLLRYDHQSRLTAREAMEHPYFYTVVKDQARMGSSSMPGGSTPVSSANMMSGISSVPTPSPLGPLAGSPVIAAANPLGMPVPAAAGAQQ
T20 sequence (Q96BR1 whole entry): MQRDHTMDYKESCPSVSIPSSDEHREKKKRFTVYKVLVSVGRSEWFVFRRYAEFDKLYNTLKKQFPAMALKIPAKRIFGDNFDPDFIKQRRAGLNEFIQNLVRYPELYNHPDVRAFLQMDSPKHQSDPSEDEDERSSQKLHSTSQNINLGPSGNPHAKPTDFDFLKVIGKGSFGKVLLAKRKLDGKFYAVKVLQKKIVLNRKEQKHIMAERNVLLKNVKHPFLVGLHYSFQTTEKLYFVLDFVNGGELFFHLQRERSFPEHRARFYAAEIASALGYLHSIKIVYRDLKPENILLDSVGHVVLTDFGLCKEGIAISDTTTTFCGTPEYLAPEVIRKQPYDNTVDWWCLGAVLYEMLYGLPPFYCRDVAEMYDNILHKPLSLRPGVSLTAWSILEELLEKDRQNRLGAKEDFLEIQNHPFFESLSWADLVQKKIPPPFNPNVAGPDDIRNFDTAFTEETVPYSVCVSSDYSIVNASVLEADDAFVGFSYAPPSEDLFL

With `Clc1cc2cc(c1)-c1cnn3ccc(nc13)NCCOCCO2` [OD36] the inhibition at 0.1 µM (CLK4) was 22%, the inhibition at 0.1 µM (ABL1_H396P) was 21% and the inhibition at 0.1 µM (ACVR2A) was 15%. The inhibition at 0.1 µM (CDK1_cyclinA2) was 11%, the inhibition at 0.1 µM (MAP3K3) was 1% and the inhibition at 0.1 µM (EPHA3) was 12%. For the same compound, the inhibition at 0.1 µM (JAK1) was 18%, the inhibition at 0.1 µM (KIT_D816V) was 36% and the inhibition at 0.1 µM (CDK5_p25) was 10%. It also gave an inhibition at 0.1 µM (IRAK1) of 9%, an inhibition at 0.1 µM (MAPK8) of -6% and an inhibition at 0.1 µM (FYN) of 59%. For the same compound, the inhibition at 0.1 µM (TGFbR1) was 5%, the inhibition at 0.1 µM (RPS6KA2) was 7% and the inhibition at 0.1 µM (HIPK1) was 8%. For the same compound, the inhibition at 0.1 µM (PDGFRA_V561D) was -1%, the inhibition at 0.1 µM (MYLK2) was 23% and the inhibition at 0.1 µM (MYLK3) was 15%. The inhibition at 0.1 µM (CDK4_cyclinD1) was 8%, the inhibition at 0.1 µM (SGK3) was 7% and the inhibition at 0.1 µM (EPHB1) was -2%. It also gave an inhibition at 0.1 µM (NUAK1) of 6%, an inhibition at 0.1 µM (TEK_Y1108F) of -27% and an inhibition at 0.1 µM (AURKB) of 16%. The inhibition at 0.1 µM (PRKCH) was 5%, the inhibition at 0.1 µM (EPHA4) was -2% and the inhibition at 0.1 µM (PRKCI) was 11%. It also gave an inhibition at 0.1 µM (MAP3K5) of 13%, an inhibition at 0.1 µM (CDK2_cyclinE) of 7% and an inhibition at 0.1 µM (NEK11) of 4%. The inhibition at 0.1 µM (ALK_L1196M) was -7%, the inhibition at 0.1 µM (MAP2K1) was 6% and the inhibition at 0.1 µM (ACVR1B) was 22%. For the same compound, the inhibition at 0.1 µM (EGFR) was 3%, the inhibition at 0.1 µM (ABL1_E255K) was -2% and the inhibition at 0.1 µM (PRKG2) was 14%. For the same compound, the inhibition at 0.1 µM (CSK) was -4%, the inhibition at 0.1 µM (CSNK2A1) was -7% and the inhibition at 0.1 µM (HIPK2) was 16%. The inhibition at 0.1 µM (KIT_D816H) was 32%, the inhibition at 0.1 µM (ABL1_Q252H) was 33% and the inhibition at 0.1 µM (DMPK) was 2%.

With `Cc1cc2cc(c1)-c1cnn3ccc(nc13)NCCNC(=O)CCN(C)C2` [OD52] the inhibition at 0.1 µM (CLK4) was 4%, the inhibition at 0.1 µM (ABL1_H396P) was -12% and the inhibition at 0.1 µM (ACVR2A) was 14%. It also gave an inhibition at 0.1 µM (CDK1_cyclinA2) of 1%, an inhibition at 0.1 µM (MAP3K3) of 13% and an inhibition at 0.1 µM (EPHA3) of -20%. For the same compound, the inhibition at 0.1 µM (JAK1) was -6%, the inhibition at 0.1 µM (KIT_D816V) was -5% and the inhibition at 0.1 µM (CDK5_p25) was -2%. For the same compound, the inhibition at 0.1 µM (IRAK1) was 16%, the inhibition at 0.1 µM (MAPK8) was -9% and the inhibition at 0.1 µM (FYN) was 6%. The inhibition at 0.1 µM (TGFbR1) was 4%, the inhibition at 0.1 µM (RPS6KA2) was -2% and the inhibition at 0.1 µM (HIPK1) was 0%. The inhibition at 0.1 µM (PDGFRA_V561D) was 12%, the inhibition at 0.1 µM (MYLK2) was -4% and the inhibition at 0.1 µM (MYLK3) was 2%. The inhibition at 0.1 µM (CDK4_cyclinD1) was -9%, the inhibition at 0.1 µM (SGK3) was 0% and the inhibition at 0.1 µM (EPHB1) was -26%. It also gave an inhibition at 0.1 µM (NUAK1) of -4%, an inhibition at 0.1 µM (TEK_Y1108F) of -21% and an inhibition at 0.1 µM (AURKB) of -4%. The inhibition at 0.1 µM (PRKCH) was -20%, the inhibition at 0.1 µM (EPHA4) was -7% and the inhibition at 0.1 µM (PRKCI) was -17%. It also gave an inhibition at 0.1 µM (MAP3K5) of -12%, an inhibition at 0.1 µM (CDK2_cyclinE) of 5% and an inhibition at 0.1 µM (NEK11) of 4%. The inhibition at 0.1 µM (ALK_L1196M) was -6%, the inhibition at 0.1 µM (MAP2K1) was 10% and the inhibition at 0.1 µM (ACVR1B) was 13%. It also gave an inhibition at 0.1 µM (EGFR) of -14%, an inhibition at 0.1 µM (ABL1_E255K) of 7% and an inhibition at 0.1 µM (PRKG2) of -10%. The inhibition at 0.1 µM (CSK) was -6%, the inhibition at 0.1 µM (CSNK2A1) was 3% and the inhibition at 0.1 µM (HIPK2) was -2%. It also gave an inhibition at 0.1 µM (KIT_D816H) of -14%, an inhibition at 0.1 µM (ABL1_Q252H) of 1% and an inhibition at 0.1 µM (DMPK) of -5%.
